Experimental data reported in patent US8173672B2, “Quinolizidinone M1 receptor positive allosteric modulators” (Merck Sharp & Dohme Corp., priority 2008, dated 2012).

biological target: T1, acetylcholine muscarinic M1 receptor (Homo sapiens, UniProt P11229); test: muscarinic FLIPR assay: potentiation of acetylcholine (EC20)-stimulated intracellular calcium in CHOnfat/hM1 cells; assay type: cell-based; conditions: 4 min preincubation, then EC20 acetylcholine (3 nM final), read-out: IP Value (inflection point)
T1 construct: expressed in transfected cells; host or cells: CHOnfat (CHO cells; also called CHOK1/hM1), selected with Geneticin
T1 sequence (P11229 1-460): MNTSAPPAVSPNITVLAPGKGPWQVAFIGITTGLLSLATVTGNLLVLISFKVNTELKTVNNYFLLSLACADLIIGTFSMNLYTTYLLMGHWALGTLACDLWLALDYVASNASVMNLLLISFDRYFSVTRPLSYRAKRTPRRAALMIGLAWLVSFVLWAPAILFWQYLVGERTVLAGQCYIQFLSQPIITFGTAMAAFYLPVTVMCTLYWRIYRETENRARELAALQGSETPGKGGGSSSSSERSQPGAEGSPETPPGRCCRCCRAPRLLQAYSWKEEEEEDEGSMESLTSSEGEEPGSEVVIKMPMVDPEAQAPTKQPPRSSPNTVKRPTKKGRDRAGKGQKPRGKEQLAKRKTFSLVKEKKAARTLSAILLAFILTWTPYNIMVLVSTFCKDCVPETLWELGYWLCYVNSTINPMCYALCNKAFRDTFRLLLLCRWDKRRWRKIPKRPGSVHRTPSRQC
Experimental: The assay studies the effect of one or several concentrations of test compounds on basal or acetylcholine-stimulated Ca^2+ levels using FLIPR.
Compounds are prepared and subjected to a preincubation period of 4 min. Thereafter, a single EC20 concentration of acetylcholine is added to each well (3 nM final). The intracellular Ca^2+ level of each sample is measured and compared to an acetylcholine control to determine any modulatory activity.
Cells: CHOnfat/hM1, hM2, hM3 or hM4 cells are plated 24 hr before the assay at a density of 18,000 cells/well (100 μL) in a 384 well plate. CHOnfat/hM1 and CHOnfat/hM3 Growth Medium: 90% DMEM (Hi Glucose); 10% HI FBS; 2 mM L-glutamine; 0.1 mM NEAA; Pen-Strep; and 1 mg/ml Geneticin, are added. For M2Gqi5CHOnfat and M4Gqi5CHOnfat cells, an additional 600 μg/ml hygromycin is added.
Equipment: 384 well plate, 120 μL addition plate; 96-well Whatman 2 ml Uniplate Incubator, 37° C., 5% CO2; Skatron EMBLA-384 Plate Washer; Multimek Pipetting System; Genesis Freedom 200 System; Mosquito System; Temo Nanolitre Pipetting System; and FLIPR^384 Fluorometric Imaging Plate Reader System are used.
Buffers. Assay Buffer: Hanks Balanced Salt Solution, with 20 mM Hepes, 2.5 mM Probenecid (Sigma P-8761) first dissolved in 1N aqueous NaOH, 1% Bovine Serum Albumin (Sigma A-9647). Dye Loading Buffer: Assay Buffer plus 1% Fetal Bovine Serum and Fluo-4AM/Pluronic Acid Mixture. 2 mM Fluo-4AM ester stock in DMSO (Molecular Probes F-14202) Concentration of 2 μM in buffer for a final concentration of 1 μM in Assay. 20% Pluronic Acid Solution stock, with a concentration of 0.04% in Buffer, 0.02% in Assay.
65 μl of 2 mM Fluo-4AM are mixed with 130 μL of 20% Pluronic Acid. The resulting solution and 650 μL FBS is added to the assay buffer for a total volume of 65 mL. Positive Controls: 4-Br-A23187: 10 mM in DMSO; final concentration 10 μM. Acetylcholine: 10 mM in water, working stock at both 20 μM and 30 μM in assay buffer, final concentration of 10 μM. This is used to check the maximum stimulation of the CHOK1/hM1 cells. 20 μM (2×) acetylcholine is added in the preincubation part of the assay, and the 30 μM (3×) stock is added in the second part. (EC20) Acetylcholine: 10 mM in water, working stock of 9 nM (3×), and final concentration in assay is 3 nM. This is used after the preincubation with test compounds. Addition of the EC20 Acetylcholine to each well with a test compound will ascertain any modulator activity. 24 wells contain 3 nM Acetylcholine alone as a control.
Determining Activity of Putative Compounds:
Screening Plate: Compounds are titrated in 96-well plates (columns 2-11), 100% DMSO, started at a concentration of 15 mM (150× stock concentration), and 3-fold serial dilutions using Genesis Freedom200 System. Four 96-well plates are combined into a 384-well plate using Mosquito Nanolitre Pipetting System by transferring 1 μl of serial diluted compounds to each well, and 1 mM acetylcholine (100× stock concentration) were added as a control. Using Temo, 49 μl assay buffer is added to each well of the 384-well plate right before assay.
In a 96-well Whatman 2 ml Uniplate, 9 nM Acetylcholine (3×) is pipetted into wells corresponding to the screening compounds and into control wells. The 30 μM acetylcholine control (3×) is added into control wells and the 3× agonist plate is transferred into a 384-well plate.
Cells are washed three times with 100 μL of buffer, leaving 30 μL of buffer in each well. Using Multimek, 30 μL of Dye Loading Buffer is added into each well and incubated at 37° C., 5% CO2 for up to one hr.
After 60 min, the cells are washed three times with 100 μL of buffer, leaving 30 μL of buffer in each well. The cell plate, screening plate, and agonist addition plates are placed on the platform in the FLIPR and the door is closed. A signal test to check background fluorescence and basal fluorescence signal is performed. Laser intensity is adjusted if necessary. […]

Row | EC50 | SMILES
1 | 0.286 µM | CCOC(=O)C1c2ccccc2CCN1Cc1cc(C(=O)O)c(=O)n2ccccc12 (centres unmarked) [Example 11]
2 | 0.15 µM | O=C(O)c1cc(CN2CCc3ccccc3C2c2ccccc2F)c2ccccn2c1=O (centres unmarked) [Example 18]
3 | 1.72 µM | O=C(O)c1cc(CN2CCc3ccccc3C2)c2ccccn2c1=O [Example 6]
4 | 6.7 µM | Cc1ccc2c(c1)CCN(Cc1cc(C(=O)O)c(=O)n3ccccc13)C2 [Example 89, 1-[(6-methyl-3,4-dihydroisoquinolin-2(1H)-yl)methyl]-4-oxo-4H-quinolizine-3-carboxylic acid]
5 | 0.9 µM | O=C(O)c1cc(CN2CCc3cnccc3C2)c2ccccn2c1=O [Example 54]
6 | 8.98 µM | O=C(O)c1cc(CN2Cc3ccccc3C[C@@H]2CO)c2ccccn2c1=O [Example 7]
7 | 4.18 µM | O=C(O)c1cc(CN2CCn3c(-c4ccccc4)cnc3C2)c2ccccn2c1=O [Example 69]
8 | 6.2 µM | O=C(O)c1cc(CN2CCc3cc(-c4ccccc4)ccc3C2)c2ccccn2c1=O [Example 87, 4-Oxo-1-[(6-phenyl-3,4-dihydroisoquinolin-2(1H)-yl)methyl]-4H-quinolizine-3-carboxylic acid]
9 | 12 µM | N#Cc1ccc2c(c1)CCN(Cc1cc(C(=O)O)c(=O)n3ccccc13)C2 [Example 88, 1-[(6-cyano-3,4-dihydroisoquinolin-2(1H)-yl)methyl]-4-oxo-4H-quinolizine-3-carboxylic acid]
10 | 0.084 µM | O=C(O)c1cc(CN2CCc3ccccc3C2c2ccncc2)c2ccccn2c1=O (centres unmarked) [Example 17]
11 | 0.51 µM | O=C(O)c1cc(CN2CCc3cc(Cl)ccc3C2)c2ccccn2c1=O [Example 1, 1-[(6-chloro-3,4-dihydroisoquinolin-2(1H)-yl)methyl]-4-oxo-4H-quinolizine-3-carboxylic acid]
